{"source": "patent US11918645B2", "about": "“Vaccines against hepatitis B virus” (priority 2012, dated 2024)", "key": {"BALB/c mice": {"test_system": "BALB/c mice", "assay": "Immunogenicity in mice, IFNγ ELISpot of splenocytes, FP02.1 vs NP02.1 (Example 6)", "type": "in vivo", "details": "mice immunised with FP02.1 or NP02.1, restimulation 5 μg/mL/peptide, FIG. 15", "procedure": "The immunogenicity in mice of FP02.1 (containing nine fluorocarbon-conjugated peptides) was compared to NP02.1 (containing nine equivalent unconjugated peptides).\nAlternatively, splenocytes were stimulated in vitro with 5 μg/mL/peptide of nine individual peptides for 18 hours in an ELISpot assay. The number of IFNγ+ spot forming cells (SFC) was counted. Plates then were washed with PBS, incubated with an IFNγ detection peroxidase-labelled antibody, followed by a substrate, according to the manufacturer's instructions."}, "[1]": {"test_system": "PBMC from chronic HBV-infected subjects", "assay": "IFNγ ELISpot of PBMC restimulated with individual unconjugated HBV long peptides (Example 5)", "type": "cell-based, human", "details": "for T cell responses (IFNγ ELISpot), level and frequency of responders: HBeAg-negative inactive carriers and HBeAg-negative treated subjects, 5 μg/mL, 18 h, FIGS. 9 and 10; for T cell responses (IFNγ ELISpot) grouped by infecting HBV genotype: genotypes A, B, C & D, FIG. 11; for T cell responses (IFNγ ELISpot) grouped by ethnic background: three ethnic groups, FIG. 12", "procedure": "One vial of PBMC from each subject (containing 1×10^7 cells) was thawed and lymphocyte numbers were determined using a Scepter™ automated handheld cell counter. PBMC were cultured in 2 mL culture medium (CM: RPMI-1640 Glutamax supplemented with 5% human AB serum) in 24 well cell culture plates at a concentration of 1×10^6 cells/mL for a total of 11 days. Cells were stimulated with a mixture of the nine HBV-derived long peptides described in Example 3.\nEach peptide was used at a final concentration of 1 μg/peptide/mL. On Day 4, IL-2 and IL-15 were added to the cultures to final concentrations of 10 IU/mL and 10 ng/mL respectively. On Day 10, cells were washed twice in CM and cultured with 10 IU/mL IL-2 for 1 additional day. On Day 11, cells were washed twice in CM, counted and incorporated in a human IFNγ (interferon-gamma) ELISpot assay or intracellular cytokine staining.\nCells from short term cultures were plated in triplicate wells at 5×10^4 PBMC/well. Final antigen concentrations used were: 5 μg/mL for each individual peptides; PHA positive control: 1 μg/mL."}, "[2]": {"test_system": "HLA-DR11 (α1*01:01;β1*11:01)", "assay": "ProImmune REVEAL MHC class II binding assay of long peptides", "parameters": "species or system human", "details": "percentage of the signal of the positive control peptide; positive binding score >=15%", "text": "The highly frequent HLA class II alleles HLA-DR1 (α1*01:01;β1*01:01), HLA-DR15 (α1*01:01;β1*15:01), HLA-DR3 (α1*01:01;β1*03:01), HLA-DR4 (α1*01:01;β1*04:01), HLA-DR11 (α1*01:01;β1*11:01), HLA-DR13 (α1*01:01;β1*13:01), and HLA-DR7 (α1*01:01;β1*07:01) were selected. Each peptide was given a score relative to the positive control peptide, which is a known T-cell epitope."}, "HLA class II alleles": {"test_system": "HLA class II alleles", "assay": "ProImmune REVEAL MHC class II binding assay, summary over the seven alleles", "parameters": "species or system human", "details": "number of class II alleles for which positive binding (score >=15%) was detected", "text": "The highly frequent HLA class II alleles HLA-DR1 (α1*01:01;β1*01:01), HLA-DR15 (α1*01:01;β1*15:01), HLA-DR3 (α1*01:01;β1*03:01), HLA-DR4 (α1*01:01;β1*04:01), HLA-DR11 (α1*01:01;β1*11:01), HLA-DR13 (α1*01:01;β1*13:01), and HLA-DR7 (α1*01:01;β1*07:01) were selected. Each peptide was given a score relative to the positive control peptide, which is a known T-cell epitope. The score of the test peptide is reported quantitatively as a percentage of the signal generated by the positive control peptide, and the peptide is indicated as having a putative pass or fail result. Good binders are considered to be those peptides with scores >=15% of the positive control as defined by Proimmune."}}, "note": "“Also recorded” adds a separate entry of the source."}
{"substance": "NP113: unconjugated HBV long peptide, polymerase region 96-130 of virtual HBV proteome (VGPLTVNEKRRLKLIMPARFYPNVTKYLPLDKGIK; HBV CONSENSUS SEQUENCE)", "values": [{"measurement": "IFNγ response of splenocytes to each individual peptide component", "setting": "BALB/c mice", "value": "immune responses were dominated by four out of the 9 peptides contained in the vaccine"}, {"measurement": "IFNγ response of splenocytes to each individual peptide component", "setting": "BALB/c mice; listed as P113", "value": "only observed with the formulation containing the fluorocarbon-conjugated peptides"}, {"measurement": "T cell responses (IFNγ ELISpot), level and frequency of responders", "setting": "[1]", "value": "highest level of responses in both patient populations and in the highest proportion of subjects"}, {"measurement": "T cell responses (IFNγ ELISpot) grouped by infecting HBV genotype", "setting": "[1]", "value": "highest responses across all four genotypes A, B, C & D; also recorded: highest T cell response across all four genotypes compared to all other peptides"}, {"measurement": "T cell responses (IFNγ ELISpot) grouped by ethnic background", "setting": "[1]", "value": "highest responses across all three ethnic groups"}]}
{"substance": "NP151: unconjugated HBV long peptide, polymerase region 134-168 (PEHVVNHYFQTRHYLHTLWKAGILYKRETTRSASF; HBV CONSENSUS SEQUENCE)", "values": [{"measurement": "IFNγ response of splenocytes to each individual peptide component", "setting": "BALB/c mice", "value": "immune responses were dominated by four out of the 9 peptides contained in the vaccine"}, {"measurement": "T cell responses (IFNγ ELISpot), level and frequency of responders", "setting": "[1]", "value": "highest level of responses in both patient populations and in the highest proportion of subjects"}, {"measurement": "T cell responses (IFNγ ELISpot) grouped by infecting HBV genotype", "setting": "[1]", "value": "highest responses across all four genotypes A, B, C & D"}, {"measurement": "T cell responses (IFNγ ELISpot) grouped by ethnic background", "setting": "[1]", "value": "highest responses across all three ethnic groups"}]}
{"substance": "NP753(K): unconjugated HBV long peptide, core KK + 738-770 (S to T at 743) + KKK (KKKEFGATVELLSFLPSDFFPSVRDLLDTASALYRKKK; HBV CONSENSUS SEQUENCE)", "values": [{"measurement": "binding score, HLA-DR11 (α1*01:01;β1*11:01)", "setting": "[2]", "value": 1.51, "unit": "%"}, {"measurement": "Number of allele (a)", "setting": "HLA class II alleles", "value": 0}, {"measurement": "T cell responses (IFNγ ELISpot), level and frequency of responders", "setting": "[1]", "value": "highest level of responses in both patient populations and in the highest proportion of subjects"}, {"measurement": "T cell responses (IFNγ ELISpot) grouped by infecting HBV genotype", "setting": "[1]", "value": "highest responses across all four genotypes A, B, C & D"}, {"measurement": "T cell responses (IFNγ ELISpot) grouped by ethnic background", "setting": "[1]", "value": "highest responses across all three ethnic groups"}]}
